Experimental data taken from patent US20030143645A1, “Quinone reductase 2 and aldehyde dehydrogenase as therapeutic targets” (priority 2001, published 2003).

What was measured:
ALDH1 = target: T1, ALDH1 (Homo sapiens, UniProt P00352); assay: hALDH1 HPLC-based activity assay (Example 1); assay type: biochemical
T1 construct: Purification of native ALDH1, QR2 and QR1; RBC extract was prepared as described above and applied to PQ-Sepharose; tissue Valley Biomedical (blood); host or cells: human red blood cells
T1 sequence (P00352 1-501): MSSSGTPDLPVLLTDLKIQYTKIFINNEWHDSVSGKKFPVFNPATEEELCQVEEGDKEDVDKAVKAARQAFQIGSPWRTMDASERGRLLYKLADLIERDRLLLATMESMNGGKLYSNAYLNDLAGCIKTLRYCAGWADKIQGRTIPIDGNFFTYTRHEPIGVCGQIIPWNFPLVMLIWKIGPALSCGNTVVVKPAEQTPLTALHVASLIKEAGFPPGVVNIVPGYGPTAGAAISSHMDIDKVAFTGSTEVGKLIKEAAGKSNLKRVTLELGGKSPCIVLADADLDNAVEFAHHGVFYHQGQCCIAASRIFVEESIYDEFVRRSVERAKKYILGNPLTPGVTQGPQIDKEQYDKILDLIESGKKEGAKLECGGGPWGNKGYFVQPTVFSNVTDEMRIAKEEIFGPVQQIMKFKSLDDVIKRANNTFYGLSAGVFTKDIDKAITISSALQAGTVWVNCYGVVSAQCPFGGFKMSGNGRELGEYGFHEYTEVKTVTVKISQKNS
Experimental: ATP-affinity array chromatography. In whole mouse experiments, the animal (except for its tail, feet, skin and intestines) was frozen in liquid N2 and blended in buffer A containing 50 mM Hepes, pH 7.5, 50 mM NaCl, 10 mM MgCl2, 0.1% NONIDET- P40, 1 mM dithiothreitol, 1 μg/ml leupeptin, 100 μg/ml pefabloc and 10 μg/ml aprotinin. Mouse lysate was clarified by centrifugation for 1 hr at 100,000×g. For infected and non-infected RBC's˜1.5×10^9 cells were mixed with an equal volume of 2×buffer A, rocked for 30 min at 4° C., and clarified by centrifugation for 1 hr at 100,000×g. Supernatants were dialyzed overnight against 50 mM Hepes, pH 7.5, 50 mM NaCl, 10 mM MgCl2 and 1 mM dithiothreitol. […] Proteins were resolved by 12% SDS-PAGE and visualized by staining either with Coomassie brilliant Blue R-250 or silver nitrate. Alternatively, proteins were transferred to membrane GeneMate (Kaysville, Utah) in transfer buffer (25 mM Tris, 200 mM glycine, 20% methanol, and 0.01% SDS) for mixed peptide sequencing (Damer et al, J. Biol. Chem. 273:24396 (1998)). hALDH 1 and hQR2 purification and activity assays. Fresh human red blood cells (RBC) were obtained from Valley Biomedical, washed twice with PBS, and lysed in buffer B (0.1% Triton X, 50 mM Tris pH 7.5, 125 mM NaCl, 1 μg/mL aprotonin, 1 μg/mL pepstatin and 10 μg/mL PEFABLOC). […]
Values for hALDH1 were determined by HPLC assay. […]

QR2 = target: T2, QR2 (Homo sapiens, UniProt P16083); assay: QR2 activity assay with recombinant QR2 (Example 2); assay type: biochemical; parameters: GST (N, cleaved yes); made in house; E. coli only by inference; conditions: recombinant QR2; 50 μM NMeH, 5-30 μM menadione; read-out: QR2 K1 (μM) ± SEM
T2 sequence (P16083 1-231): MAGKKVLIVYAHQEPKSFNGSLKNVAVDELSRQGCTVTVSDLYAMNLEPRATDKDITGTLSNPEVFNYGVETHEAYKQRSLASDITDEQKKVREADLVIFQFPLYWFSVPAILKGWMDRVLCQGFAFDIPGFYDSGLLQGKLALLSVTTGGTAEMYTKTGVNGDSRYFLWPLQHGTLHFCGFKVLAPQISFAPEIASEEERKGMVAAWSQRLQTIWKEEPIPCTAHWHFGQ
Experimental: Cloning of human QR2. Human QR2 was PCR amplified from human liver cDNA (Clontech) with the following primers: 5′[…]-3′ and 5′-[…]-3′ and cloned into the pGEX-4T-2 GST expression vector (Pharmacia). GST-tagged QR2 was purified and the GST tag removed according to the manufacturers instructions.
ALDH1, QR2 and QR1 activity assays. […] Reaction products were separated with a gradient of acetonitrile in 10 mM triethylamine acetic acid. […] QR1 IC50 values were calculated using GraphPad Prism.

ALDH activity (ALDH1; 0.5 mM CQ, ALDH alone 48.42 ± 9.3 pmol): 26.62 ± 6.1 pmol
inhibition of hALDH1 activity (ALDH1; in the presence of physiological [NADH]): relatively weak inhibitor
Ki (QR2): 0.61 ± 0.1 µM
SMILES: CCN(CC)CCCC(C)Nc1ccnc2cc(Cl)ccc12 (stereo not drawn) [CQ, chloroquine]
